Reference: PubChem BioAssay AID1845195 (Molecular Pharmacology Branch, DTP, NCI, 2023)

Tested on: 156681-154-R-J1 tumor spheroid viability
Assay: Anticancer human tumor 156681-154-R-J1 patient-derived melanoma cell line growth inhibition
Settings: spheroids with HUVEC and MSC; for IC50: curve of first compound; for viability, T/C: stronger effect = lower value
Text: Multicellular complex tumor spheroid response to DNA repair inhibitors in combination with DNA-damaging drugs
This study explores the anticancer activities of DNA-damaging drugs and inhibitors of DNA damage repair, both as single agents and in combinations. Complex tumor spheroids comprised of malignant cells, endothelial cells and mesenchymal stem cells served as an in vitro model for human solid tumors. This model system incorporates physiologically relevant features and patient-derived or established malignant cell lines with clinically relevant genetic alterations from many tumor types. Twenty-six patient-derived or established malignant cell lines were evaluated representing sarcoma, melanoma, small cell lung cancer (SCLC), non-small cell lung cancer (NSCLC), as well as bladder, ovarian and pancreatic cancers. The concentration ranges selected for each drug and investigational agent were based upon clinically achievable concentrations if the clinical Cmax of the agent was known.
Compounds. The drugs and compounds olaparib (NSC753686), talazoparib (NSC767125), berzosertib (NSC777718), elimusertib (NSC800525), nedisertib (NSC802822), VX-984 (NSC792969), AZD-1390 (NSC803789), temozolomide (NSC362856), topotecan (NSC609699), trabectedin (NSC813783), staurosporine (NSC755774), and gemcitabine (NSC613327) were obtained from the National Cancer Institute (NCI) Developmental Therapeutics Program Chemical Repository. The FDA-approved anticancer drug set is available from the Developmental Therapeutics Program at https://dtp.cancer.gov/organization/dscb/obtaining/available_plates.htm. […] The stock solutions were prepared in dimethyl sulfoxide (DMSO, Sigma-Aldrich, St. Louis, MO, cat. D2650) at 400-fold the tested concentration and stored at -70 degrees C. Prior to their use, the stock solutions were diluted in fresh medium and the final DMSO concentration in the assay was 0.25% (v/v). All drugs and investigational agents were tested over a range starting from a high concentration at or near the clinical Cmax and decreasing in half-log increments. If the clinical Cmax for an agent had not been determined, the highest concentration tested was 10 microM.
Cell Lines. The patient-derived cancer cell (PDC) lines: 156681-154-R-J1-PDC, 283228-195-R-J1-PDC, 287954-098-R-J1-PDC, 292921-168-R-J2-PDC, 349418-098-R-PDC, 425362-245-T-J1-PDC, 556581-035-R-J1-PDC, and BL0293-F563-PDC were received from the NCI Patient-Derived Models Repository (PDMR, https://pdmr.cancer.gov). The established cell lines HS-SY-2 (RRID:CVCL_8719), MPNST, and SYO-1 (RRID:CVCL_7146) were obtained from the Sloan Kettering Institute. The alveolar soft parts sarcoma cell line ASPS-1 (RRID:CVCL_S738) was established at the NCI and grown from internal seed stocks. The following established cell lines were purchased from the American Type Culture Collection (ATCC, Manassas, VA): G-401 (ATCC, cat. CRL-1441, RRID:CVCL_0270), SW982 (ATCC, cat. HTB-93, RRID:CVCL_1734), VA-ES-BJ (ATCC, cat. CRL-2138, RRID:CVCL_1785), NCI-H719 (ATCC, cat. CRL-5837, RRID:CVCL_1582), NCI-H196 (ATCC, cat. CRL-5823, RRID:CVCL_1509), NCI-H841 (ATCC, cat. CRL-5845, RRID:CVCL_1595), NCI-H1618 (ATCC, cat. CRL-5879, RRID:CVCL_1480), NCI-H1876 (ATCC, cat. CRL-5902, RRID:CVCL_1503), DMS 114 (ATCC, cat. CRL-2066; RRID:CVCL_1174), NCI-H211 (ATCC, cat. CRL-5824; RRID:CVCL_1529), and SW 1271 (ATCC, cat. CRL-2177, RRID:CVCL_1716). The small cell lung cancer cell line COR-L88 was purchased from Sigma-Aldrich (cat. 92031917-1VL, RRID:CVCL_1141). The non-small cell lung cancer cell lines NCI-H226 (RRID:CVCL_1544) and NCI-H322M (RRID:CVCL_1557) were established at the NCI and grown from internal seed stocks. Pooled donor human umbilical vein endothelial cells (HUVEC, Lonza, cat. CC-2519) and human mesenchymal stem cells (hMSC, Lonza, cat. PT-2501) were purchased from Lonza (Walkersville, MD).
Cell Culture. All cells were maintained in an incubator at 37 degrees C and 5% CO2 with 95% humidity. […]

[1] = second compound 0.003 µM, first compound 0.0949 µM
[2] = second compound 0.003 µM, first compound 0.3 µM
[3] = second compound 0.003 µM, first compound 0.949 µM
[4] = second compound 0.003 µM, first compound 3 µM
[5] = second compound 0.00949 µM, first compound 0.0949 µM
[6] = second compound 0.00949 µM, first compound 0.3 µM
[7] = second compound 0.00949 µM, first compound 0.949 µM
[8] = second compound 0.00949 µM, first compound 3 µM
[9] = second compound 0.03 µM, first compound 0.0949 µM
[10] = second compound 0.03 µM, first compound 0.3 µM
[11] = second compound 0.03 µM, first compound 0.949 µM
[12] = second compound 0.03 µM, first compound 3 µM
[13] = second compound 0.0949 µM, first compound 0.0949 µM
[14] = second compound 0.0949 µM, first compound 0.3 µM
[15] = second compound 0.0949 µM, first compound 0.949 µM
[16] = second compound 0.0949 µM, first compound 3 µM
[17] = second compound 0.3 µM, first compound 0.0949 µM
[18] = second compound 0.3 µM, first compound 0.3 µM
[19] = second compound 0.3 µM, first compound 0.949 µM
[20] = second compound 0.3 µM, first compound 3 µM
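Note: spheroids exposed to compounds for 7 days before readout.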
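Throughout, for viability, T/C: percent of vehicle control viability where 100% = DMSO-treated spheroids.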

In the case of `Cn1ncnc1[C@H]1c2n[nH]c(=O)c3cc(F)cc(c23)N[C@@H]1c1ccc(F)cc1` + CC[C@@]1(O)C(=O)OCc2c1cc1n(c2=O)Cc2cc3c(CN(C)C)c(O)ccc3nc2-1, the IC50 (second compound 0.003 µM) is reported as 871 nM, the IC50 (second compound 0.00949 µM) is reported as 207 nM and the IC50 (second compound 0.03 µM) is reported as less than 9.49 nM. It also gave an IC50 (second compound 0.0949 µM) of less than 9.49 nM, an IC50 (second compound 0.3 µM) of less than 9.49 nM and a viability, T/C (second compound 0.003 µM, first compound 0.00949 µM) of 87.1%. For the same compound, the viability, T/C (second compound 0.003 µM, first compound 0.03 µM) was 102%, the viability, T/C [1] was 82.5% and the viability, T/C [2] was 77.3%. For the same compound, the viability, T/C [3] was 47.8%, the viability, T/C [4] was 8.02% and the viability, T/C (second compound 0.00949 µM, first compound 0.00949 µM) was 58.8%. It also gave a viability, T/C (second compound 0.00949 µM, first compound 0.03 µM) of 65.9%, a viability, T/C [5] of 48.8% and a viability, T/C [6] of 50%. The viability, T/C [7] was 21.2%, the viability, T/C [8] was 9.62% and the viability, T/C (second compound 0.03 µM, first compound 0.00949 µM) was 33.5%. The viability, T/C (second compound 0.03 µM, first compound 0.03 µM) was 28.7%, the viability, T/C [9] was 22.1% and the viability, T/C [10] was 18.2%. It also gave a viability, T/C [11] of 15.2%, a viability, T/C [12] of 6.77% and a viability, T/C (second compound 0.0949 µM, first compound 0.00949 µM) of 29.5%. It also gave a viability, T/C (second compound 0.0949 µM, first compound 0.03 µM) of 33.4%, a viability, T/C [13] of 32.7% and a viability, T/C [14] of 31.2%. For the same compound, the viability, T/C [15] was 24.9%, the viability, T/C [16] was 10.6% and the viability, T/C (second compound 0.3 µM, first compound 0.00949 µM) was 41.8%. It also gave a viability, T/C (second compound 0.3 µM, first compound 0.03 µM) of 43.8%, a viability, T/C [17] of 47.8% and a viability, T/C [18] of 43.3%. The viability, T/C [19] was 44% and the viability, T/C [20] was 24.6%.

In the case of `O=C(c1cc(Cc2n[nH]c(=O)c3ccccc23)ccc1F)N1CCN(C(=O)C2CC2)CC1` + CC[C@@]1(O)C(=O)OCc2c1cc1n(c2=O)Cc2cc3c(CN(C)C)c(O)ccc3nc2-1, the IC50 (second compound 0.003 µM) is reported as 21300 nM, the IC50 (second compound 0.00949 µM) is reported as 14800 nM and the IC50 (second compound 0.03 µM) is reported as less than 94.9 nM. It also gave an IC50 (second compound 0.0949 µM) of less than 94.9 nM, an IC50 (second compound 0.3 µM) of less than 94.9 nM and a viability, T/C [1] of 103%. The viability, T/C [2] was 80.6%, the viability, T/C [3] was 74.2% and the viability, T/C [4] was 74.5%. For the same compound, the viability, T/C (second compound 0.003 µM, first compound 9.49 µM) was 63%, the viability, T/C (second compound 0.003 µM, first compound 30 µM) was 42.1% and the viability, T/C [5] was 59.1%. The viability, T/C [6] was 64.2%, the viability, T/C [7] was 76.7% and the viability, T/C [8] was 62.6%. For the same compound, the viability, T/C (second compound 0.00949 µM, first compound 9.49 µM) was 62%, the viability, T/C (second compound 0.00949 µM, first compound 30 µM) was 31.2% and the viability, T/C [9] was 38.4%. The viability, T/C [10] was 41.1%, the viability, T/C [11] was 36.7% and the viability, T/C [12] was 29.8%. For the same compound, the viability, T/C (second compound 0.03 µM, first compound 9.49 µM) was 15.3%, the viability, T/C (second compound 0.03 µM, first compound 30 µM) was 15.5% and the viability, T/C [13] was 33.5%. For the same compound, the viability, T/C [14] was 35.5%, the viability, T/C [15] was 33% and the viability, T/C [16] was 25.7%. It also gave a viability, T/C (second compound 0.0949 µM, first compound 9.49 µM) of 21.7%, a viability, T/C (second compound 0.0949 µM, first compound 30 µM) of 9.48% and a viability, T/C [17] of 46%. The viability, T/C [18] was 46.4%, the viability, T/C [19] was 46.6% and the viability, T/C [20] was 46.2%. For the same compound, the viability, T/C (second compound 0.3 µM, first compound 9.49 µM) was 42.3% and the viability, T/C (second compound 0.3 µM, first compound 30 µM) was 13.3%.
